Results from publication PMC10096054, “A New Application of Spin and Fluorescence Double-Sensor Molecules” (Molecules, 2023).
Like-named read-outs stand apart in the source and are kept apart here.

Biological target: T1, human serum albumin (HSA) (Homo sapiens, UniProt P02768)
T1 construct: gene ALB; commercial human serum albumin purchased from Merck
Assay: fluorescence polarization titration, nonlinear […] fit
Type: binding

T1 sequence (P02768 25-609): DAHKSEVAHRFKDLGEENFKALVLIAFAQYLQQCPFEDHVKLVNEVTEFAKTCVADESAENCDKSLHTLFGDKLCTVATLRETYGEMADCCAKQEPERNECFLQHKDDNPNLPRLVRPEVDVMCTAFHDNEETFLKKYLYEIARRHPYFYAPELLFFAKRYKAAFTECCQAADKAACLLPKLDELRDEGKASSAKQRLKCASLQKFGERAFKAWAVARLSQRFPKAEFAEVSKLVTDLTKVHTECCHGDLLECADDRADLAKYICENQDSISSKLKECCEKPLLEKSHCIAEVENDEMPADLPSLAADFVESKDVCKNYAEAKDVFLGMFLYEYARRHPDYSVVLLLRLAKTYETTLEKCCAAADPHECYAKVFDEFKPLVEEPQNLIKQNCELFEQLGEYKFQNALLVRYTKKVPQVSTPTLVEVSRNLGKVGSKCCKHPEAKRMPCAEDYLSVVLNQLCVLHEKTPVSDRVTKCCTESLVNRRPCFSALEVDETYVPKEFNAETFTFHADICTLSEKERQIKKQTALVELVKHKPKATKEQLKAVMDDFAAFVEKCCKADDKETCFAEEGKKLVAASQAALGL

Row | Compound | Kd [nM] | Kd (read-out: logK (1-HSA, Absence of 2) (converted)) [nM]
1 | CC1(C)C(CO)=C(c2ccc3ccc4cccc5ccc2c3c45)C(C)(C)N1[O] [compound 1, 3-hydroxymethyl-1-oxyl-4-(pyren-1-yl)-2,2,5,5-tetramethyl-2,5-dihydro-1H-pyrrole radical] | 1410 | 
2 | CON1C(C)(C)C(CO)=C(c2ccc3ccc4cccc5ccc2c3c45)C1(C)C [compound 6, (1-methoxy-2,2,5,5-tetramethyl-4-(pyren-1-yl)-2,5-dihydro-1H-pyrrol-3-yl)methanol] |  | 331
